Measured values: patent US20040192553A1, “Inosine L-Arginine salt and uses thereof” (priority 2001, published 2004)

Legend:
[1] = Test of velocity of dissolution; type: physicochemical; conditions: 1.2 mmol added to 10 mL of water with stirring at room temperature
Experimental: Test of Velocity of Dissolution
Each of the following was added to separate containers containing 10 mL of water with stirring at room temperature: (a) a mixture (0.53 g) of 1.2 mmol of inosine and 1.2 mmol of L-arginine, (b) 1.2 mmol (0.53 g) of the inosine. L-arginine salt obtained in Example 1, and (3) 1.2 mmol (0.32 g) of inosine. The time period for complete dissolution was measured for each. The equimolar mixture of inosine and L-arginine required 50 seconds for complete dissolution. On the other hand, inosine. […] L-arginine salt were confirmed.

[2] = tested on: Lawn seedlings (Western lawn: bent grass); experiment: Plant growth promoting effect, hydroponic culture of lawn seedlings; type: in vivo; conditions: hydroponics in HYPONEX diluted 2,000-fold, inosine concentration 20 ppm, after a month of culturing
Experimental: Plant Growth Promoting Effect
Lawn seedlings (Western lawn: bent grass) were raised and divided into two groups each containing 30 plants. Hydroponics were performed as follows. Both the control group and the inosine. L-arginine salt group were cultured using HYPONEX, diluted by a facter of 2,000. The HYPONEX diluted by a facter of 2000 alone was used as culture fluid for the control group. Inosine- L-arginine salt was added to the culture fluid to an inosine concentration of 20 ppm.
After a month of culturing, the average plant length, the average root length, the number of leaves for 30 plants, the number of branching of a stem for 30 plants, the weight for 30 plants, and the dried weight for 30 plants were measured for each group. From the Table, the effectiveness of inosine. L-arginine salt was confirmed.

[3] = at normal temperatures; cited from earlier work

SMILES | time period for complete dissolution [1] | Dried weight per 30 plants [2] [g] | Number of branching per 30 plants [2] | Number of leaves per 30 plants [2] | Weight per 30 plants [2] [g] | Average plant length ([2]; 30 plants) [cm] | Average root length ([2]; 30 plants) [cm] | solubility in water [3]
N=C(N)NCCC[C@H](N)C(=O)O.OC[C@H]1O[C@@H](n2cnc3c(O)ncnc32)[C@H](O)[C@@H]1O [inosine · L-arginine salt, inosine. L-arginine salt] | dissolved immediately | 0.0434 | 37 | 102 | 0.13 | 6.0 | 5.0 | –
OC[C@H]1O[C@@H](n2cnc3c(O)ncnc32)[C@H](O)[C@@H]1O [inosine] | did not completely dissolve | – | – | – | – | – | – | about 1.6%
